The NIST ThermoML archive (doi:10.1016/j.jct.2004.12.014)

Key:
[1] = refractive index (Na D-line) (dimensionless); details: 318.15 K; 101.33 kPa; Liquid; Standard Abbe refractometry
[2] = 318.15 K; 101.33 kPa; Liquid
[3] = xn = mol fraction of the nth substance listed; details: 318.15 K, 101 kPa, Liquid
[4] = excess molar enthalpy (molar enthalpy of mixing); xn = mol fraction of the nth substance listed; details: 318.15 K, 101 kPa, Liquid

CCC(=O)OC [methyl propanoate]
Details	mass density [kg/m3]	refractive index
[1]	–	1.3641
[2]	884.6	–

CCCCOC(=O)CC [butyl propanoate]
Details	mass density [kg/m3]	refractive index
[1]	–	1.3895
[2]	851.33	–

CCCCCOC(=O)CC [pentyl propanoate]
Details	mass density [kg/m3]
[2]	848.98

CCCOC(=O)CC [propyl propanoate]
Details	mass density [kg/m3]	refractive index
[1]	–	1.3809
[2]	854.57	–

CCOC(=O)CC [ethyl propanoate]
Details	mass density [kg/m3]	refractive index
[1]	–	1.3711
[2]	860.98	–

CCOC(=O)CC [ethyl propanoate] + CCCCCCCCC
Details	excess molar enthalpy, [4] [kcal/mol]	excess molar volume, [3] [m3/mol]
x1 = 0.0376	–	1.65e-07
x1 = 0.0817	0.092	–
x1 = 0.0926	–	3.58e-07
x1 = 0.1719	0.168	–
x1 = 0.1744	–	6.18e-07
x1 = 0.2554	–	8.2e-07
x1 = 0.2598	0.231	–
x1 = 0.3255	–	9.43e-07
x1 = 0.3403	0.272	–
x1 = 0.3925	–	1.022e-06
x1 = 0.4145	0.297	–
x1 = 0.457	–	1.075e-06
x1 = 0.4797	0.309	–
x1 = 0.4909	0.311	–
x1 = 0.523	–	1.077e-06
x1 = 0.5379	0.31	–
x1 = 0.5764	0.305	–
x1 = 0.5826	–	1.066e-06
x1 = 0.5876	0.303	–
x1 = 0.6277	0.291	–
x1 = 0.6348	–	1.027e-06
x1 = 0.6791	0.271	–
x1 = 0.6882	–	9.47e-07
x1 = 0.732	0.243	–
x1 = 0.7398	–	8.52e-07
x1 = 0.7883	0.207	7.57e-07
x1 = 0.8344	–	6.26e-07
x1 = 0.8451	0.163	–
x1 = 0.878	–	5.01e-07
x1 = 0.9016	0.111	–
x1 = 0.9181	–	3.41e-07
x1 = 0.9517	0.0589	–
x1 = 0.9584	–	1.81e-07

CCC(=O)OC [methyl propanoate] + CCCCCCCCC
Details	excess molar enthalpy [kcal/mol]	excess molar volume [m3/mol]
[3], x1 = 0.047	–	2.8e-07
[3], x1 = 0.111	–	5.7e-07
[3], x1 = 0.2022	–	9.27e-07
[3], x1 = 0.2873	–	1.164e-06
[3], x1 = 0.3671	–	1.333e-06
[3], x1 = 0.4381	–	1.406e-06
[3], x1 = 0.5037	–	1.425e-06
[3], x1 = 0.5664	–	1.423e-06
[3], x1 = 0.6242	–	1.359e-06
[3], x1 = 0.6768	–	1.278e-06
[3], x1 = 0.7271	–	1.166e-06
[3], x1 = 0.7724	–	1.037e-06
[3], x1 = 0.817	–	8.78e-07
[3], x1 = 0.856	–	7.5e-07
[3], x1 = 0.896	–	5.89e-07
[3], x1 = 0.9315	–	3.93e-07
[3], x1 = 0.9661	–	1.98e-07
[4], x1 = 0.084	0.111	–
[4], x1 = 0.1528	0.19	–
[4], x1 = 0.2279	0.261	–
[4], x1 = 0.2957	0.313	–
[4], x1 = 0.3549	0.35	–
[4], x1 = 0.4111	0.375	–
[4], x1 = 0.4611	0.391	–
[4], x1 = 0.5059	0.4	–
[4], x1 = 0.546	0.402	–
[4], x1 = 0.5832	0.399	–
[4], x1 = 0.6314	0.386	–
[4], x1 = 0.6645	0.371	–
[4], x1 = 0.7099	0.345	–
[4], x1 = 0.7579	0.311	–
[4], x1 = 0.808	0.268	–
[4], x1 = 0.8604	0.212	–
[4], x1 = 0.9122	0.148	–
[4], x1 = 0.9599	0.0769	–

CCCCCCCCCCCCCCC [pentadecane] + CCCCOC(=O)CC
Details	excess molar enthalpy [kcal/mol]	excess molar volume [m3/mol]
[3], x2 = 0.0505	–	1.65e-07
[3], x2 = 0.0965	–	3.01e-07
[3], x2 = 0.197	–	5.5e-07
[3], x2 = 0.2885	–	7.14e-07
[3], x2 = 0.372	–	8.22e-07
[3], x2 = 0.4383	–	8.58e-07
[3], x2 = 0.5036	–	8.89e-07
[3], x2 = 0.5649	–	8.8e-07
[3], x2 = 0.6245	–	8.56e-07
[3], x2 = 0.6765	–	8.1e-07
[3], x2 = 0.7278	–	7.63e-07
[3], x2 = 0.7734	–	6.88e-07
[3], x2 = 0.817	–	5.89e-07
[3], x2 = 0.8567	–	4.91e-07
[3], x2 = 0.897	–	3.82e-07
[3], x2 = 0.9328	–	2.79e-07
[3], x2 = 0.9665	–	1.56e-07
[4], x2 = 0.0761	0.0789	–
[4], x2 = 0.1691	0.151	–
[4], x2 = 0.2538	0.211	–
[4], x2 = 0.3371	0.253	–
[4], x2 = 0.4082	0.279	–
[4], x2 = 0.4663	0.291	–
[4], x2 = 0.5154	0.294	–
[4], x2 = 0.5563	0.292	–
[4], x2 = 0.5938	0.288	–
[4], x2 = 0.6011	0.287	–
[4], x2 = 0.6427	0.276	–
[4], x2 = 0.6861	0.262	–
[4], x2 = 0.7321	0.242	–
[4], x2 = 0.7784	0.215	–
[4], x2 = 0.8262	0.18	–
[4], x2 = 0.8732	0.142	–
[4], x2 = 0.9184	0.0978	–
[4], x2 = 0.9612	0.0508	–

CCCCCCCCCCCCCCCCC [heptadecane] + CCOC(=O)CC
Details	excess molar enthalpy [kcal/mol]	excess molar volume [m3/mol]
[3], x2 = 0.066	–	2.51e-07
[3], x2 = 0.1449	–	5.19e-07
[3], x2 = 0.2675	–	8.82e-07
[3], x2 = 0.3677	–	1.105e-06
[3], x2 = 0.4535	–	1.215e-06
[3], x2 = 0.5272	–	1.268e-06
[3], x2 = 0.5954	–	1.278e-06
[3], x2 = 0.6524	–	1.237e-06
[3], x2 = 0.7503	–	1.094e-06
[3], x2 = 0.7915	–	9.93e-07
[3], x2 = 0.8304	–	8.71e-07
[3], x2 = 0.8626	–	7.59e-07
[3], x2 = 0.8973	–	6.31e-07
[3], x2 = 0.9257	–	4.92e-07
[3], x2 = 0.9523	–	3.54e-07
[3], x2 = 0.9771	–	1.83e-07
[4], x2 = 0.1049	0.125	–
[4], x2 = 0.213	0.232	–
[4], x2 = 0.3031	0.311	–
[4], x2 = 0.3846	0.366	–
[4], x2 = 0.4607	0.402	–
[4], x2 = 0.5315	0.42	–
[4], x2 = 0.5885	0.421	–
[4], x2 = 0.6272	0.413	–
[4], x2 = 0.6888	0.386	–
[4], x2 = 0.7229	0.364	–
[4], x2 = 0.7635	0.334	–
[4], x2 = 0.8055	0.296	–
[4], x2 = 0.8479	0.254	–
[4], x2 = 0.8897	0.202	–
[4], x2 = 0.9313	0.138	–
[4], x2 = 0.9727	0.0626	–

CCC(=O)OC [methyl propanoate] + CCCCCCCCCCC
Details	excess molar enthalpy [kcal/mol]	excess molar volume [m3/mol]
[3], x1 = 0.0968	–	4.8e-07
[3], x1 = 0.1299	–	6.34e-07
[3], x1 = 0.2313	–	1.02e-06
[3], x1 = 0.3207	–	1.285e-06
[3], x1 = 0.4052	–	1.433e-06
[3], x1 = 0.4772	–	1.508e-06
[3], x1 = 0.5465	–	1.514e-06
[3], x1 = 0.6062	–	1.482e-06
[3], x1 = 0.6609	–	1.417e-06
[3], x1 = 0.7121	–	1.302e-06
[3], x1 = 0.7581	–	1.188e-06
[3], x1 = 0.8001	–	1.041e-06
[3], x1 = 0.8396	–	9.14e-07
[3], x1 = 0.876	–	7.62e-07
[3], x1 = 0.9105	–	6.09e-07
[3], x1 = 0.9416	–	4.25e-07
[3], x1 = 0.9727	–	2.27e-07
[4], x1 = 0.0844	0.118	–
[4], x1 = 0.1733	0.219	–
[4], x1 = 0.2574	0.3	–
[4], x1 = 0.327	0.355	–
[4], x1 = 0.3915	0.394	–
[4], x1 = 0.4431	0.416	–
[4], x1 = 0.4953	0.432	–
[4], x1 = 0.5414	0.436	–
[4], x1 = 0.5798	0.434	–
[4], x1 = 0.6125	0.428	–
[4], x1 = 0.6312	0.422	–
[4], x1 = 0.6661	0.406	–
[4], x1 = 0.7078	0.382	–
[4], x1 = 0.7509	0.348	–
[4], x1 = 0.7942	0.307	–
[4], x1 = 0.8346	0.263	–
[4], x1 = 0.8799	0.21	–
[4], x1 = 0.9235	0.148	–
[4], x1 = 0.9624	0.0795	–

CCCCCCCCCCCCCCC [pentadecane] + CCCOC(=O)CC
Details	excess molar enthalpy [kcal/mol]	excess molar volume [m3/mol]
[3], x2 = 0.0571	–	1.92e-07
[3], x2 = 0.121	–	3.65e-07
[3], x2 = 0.2189	–	6.37e-07
[3], x2 = 0.3124	–	8.36e-07
[3], x2 = 0.3919	–	9.5e-07
[3], x2 = 0.4644	–	1.011e-06
[3], x2 = 0.5327	–	1.042e-06
[3], x2 = 0.5945	–	1.032e-06
[3], x2 = 0.6507	–	9.93e-07
[3], x2 = 0.7004	–	9.51e-07
[3], x2 = 0.7486	–	8.75e-07
[3], x2 = 0.7919	–	7.84e-07
[3], x2 = 0.8316	–	6.85e-07
[3], x2 = 0.8692	–	5.77e-07
[3], x2 = 0.9037	–	4.49e-07
[3], x2 = 0.9384	–	3.2e-07
[3], x2 = 0.9689	–	1.72e-07
[4], x2 = 0.0908	0.0969	–
[4], x2 = 0.2077	0.193	–
[4], x2 = 0.3159	0.265	–
[4], x2 = 0.4097	0.309	–
[4], x2 = 0.481	0.33	–
[4], x2 = 0.538	0.336	–
[4], x2 = 0.5826	0.333	–
[4], x2 = 0.6208	0.327	–
[4], x2 = 0.6333	0.322	–
[4], x2 = 0.6724	0.307	–
[4], x2 = 0.7191	0.284	–
[4], x2 = 0.7668	0.255	–
[4], x2 = 0.8087	0.224	–
[4], x2 = 0.8594	0.181	–
[4], x2 = 0.9086	0.128	–
[4], x2 = 0.96	0.0654	–
